Data reported in patent publication US10919899B2, “Imidazopyrazine compounds, preparation methods and uses thereof” (DONGGUAN ZHENXING-BEITE MEDICINE TECHNOLOGY CO., LTD., priority 2017, dated 2021).
“Also recorded” adds a separate entry of the source. Each block holds one compound with its values, some of them ahead of it.

Experiments:
HCC827 NSCLC cell = assay: Tumor cell proliferation inhibition assay (CellTiter-Glo), HCC827; type: cell-based; conditions: Homo sapiens, 72 hours, 10% fetal calf serum, read-out: HCC827 anti-proliferative IC50 level
Method: (§1) Cell viability was evaluated by measuring a content of triphosadenine (ATP) by using CellTiter-Glo luminescent cell viability assay kit method (Promega, # G7572, Madison, Wis.). Diffuse large B cell lymphoma cell strain TMD-8 and HCC827 NSCL cell strains are purchased from Shanghai Fudan IBS Cell Center and American Type Culture Collection (ATCC). After the cells were digested from a cell culture dish by pancreatin and re-suspended by DPBS culture medium, a Scepter automatic cell counter (Millipore, # PHCC00000) was used for counting to measure a cell density. The cells were diluted to be a solution containing 44,000 cells per milliliter. The cell solution with the adjusted density was added into a cell assay plate with 90 μl per well. The well plate was placed to an incubator with 5% CO2 at 37° C. to be incubated for 24 hours and then added with the compound to be tested with different concentrations. The cells and the compound were together incubated for 72 hours in the presence of 10% fetal calf serum. The content of ATP was measured by using CellTiter-Glo® Luminescent Cell Viability Assay kit (referring to manufacturer's instruction) to evaluate the inhibition to the cell growth. Briefly speaking, each well was added with 30 μl of CellTiter-Glo® reagent, the plate was shaken for 10 minutes to induce the cells to be lysed, and fluorescence signal was detected and recorded by fluorescencelchemiluminescence analyzer Fluoroskan Ascent FL (Thermo Scientific Fluoroskan Ascent FL). The maximal signal value was obtained from cells processed by dimethyl sulfoxide (DMSO) for 72 or 120 hours. The minimal signal value obtained from separate culture medium (wherein the number of cells was zero) was defined as 0. Inhibition ratio %=(maximal signal value-compound signal value)/(maximal signal value−minimal signal value)×100%. The data was processed by using GraphPad Prism V5.0 (GraphPad Software San Diego, Calif.) software. IC50 value was fitted and calculated via S-shaped dose-response curve.

[1] = test system: Diffuse large B cell lymphoma cell strain TMD-8; assay: Tumor cell proliferation inhibition assay (CellTiter-Glo), TMD-8; type: cell-based; conditions: Homo sapiens, TMD8; 72 hours, 10% fetal calf serum; read-out: TMD-8 anti-proliferative IC50 level
Method: as §1

BTK = BTK (Homo sapiens (Human), UniProt Q06187); assay: BTK kinase activity inhibition assay (Caliper mobility shift); type: biochemical; conditions: ATP 90 μM, read-out: BTK IC50 level
Sequence of BTK (Q06187 whole entry): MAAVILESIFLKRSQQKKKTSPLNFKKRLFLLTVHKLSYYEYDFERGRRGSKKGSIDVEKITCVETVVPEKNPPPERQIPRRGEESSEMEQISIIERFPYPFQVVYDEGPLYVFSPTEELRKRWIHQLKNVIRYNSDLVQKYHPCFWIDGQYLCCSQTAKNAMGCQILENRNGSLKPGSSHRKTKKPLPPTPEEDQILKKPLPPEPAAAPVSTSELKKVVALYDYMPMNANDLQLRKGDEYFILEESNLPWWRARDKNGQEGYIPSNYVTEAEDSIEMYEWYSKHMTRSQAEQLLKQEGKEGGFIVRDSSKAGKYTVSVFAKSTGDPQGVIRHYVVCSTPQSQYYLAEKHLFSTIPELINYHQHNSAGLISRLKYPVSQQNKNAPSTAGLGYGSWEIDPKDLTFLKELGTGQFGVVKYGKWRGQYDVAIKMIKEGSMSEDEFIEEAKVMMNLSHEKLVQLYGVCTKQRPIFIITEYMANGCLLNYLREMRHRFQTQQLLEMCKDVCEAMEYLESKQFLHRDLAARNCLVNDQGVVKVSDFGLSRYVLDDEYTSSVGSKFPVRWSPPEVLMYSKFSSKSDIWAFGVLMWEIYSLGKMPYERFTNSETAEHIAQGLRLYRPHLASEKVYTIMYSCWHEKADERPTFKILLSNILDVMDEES
Method: Activity of BTK protein kinase was tested by Caliper mobility shift assay (referring to J Biomol Screen 14:31, 2009). The compound of the present disclosure was dissolved in DMSO and then diluted 10-fold with kinase buffer solution (50 mM HEPES-pH 7.5, 0.0015% Brij-35, 10 mM MgCl2, 2 mM DTT). […] 10 μl of a substrate solution of a substrate FAM-labeled SRCtide peptide (Biochem, Cat. No. 112394) and ATP (90 μM) with 2.5-fold final reaction concentration was further added to start the reaction. Then incubation was performed for 10 minutes at room temperature. After incubation for 1 hour 28° C., 25 μl of stopping solution (100 mM HEPES, pH 7.5, 0.015% Brij-35, 0.2% Coating Reagent #3, 50 mM EDTA) was added to terminate the reaction. The conversion ratio data was read on Caliper EZ Reader II (Caliper Life Sciences). The inhibition ratio was calculated and the calculation formula is: inhibition ratio %=(max-conversion)/(max-min)×100 %.

Txk (h) = Txk (h) (Homo sapiens (Human), UniProt P42681); assay: Txk activity inhibition assay (radioactive protein kinase method, Eurofins); type: biochemical; conditions: for IC50: Km ATP, radiometric
Sequence of Txk (h) (P42681 whole entry): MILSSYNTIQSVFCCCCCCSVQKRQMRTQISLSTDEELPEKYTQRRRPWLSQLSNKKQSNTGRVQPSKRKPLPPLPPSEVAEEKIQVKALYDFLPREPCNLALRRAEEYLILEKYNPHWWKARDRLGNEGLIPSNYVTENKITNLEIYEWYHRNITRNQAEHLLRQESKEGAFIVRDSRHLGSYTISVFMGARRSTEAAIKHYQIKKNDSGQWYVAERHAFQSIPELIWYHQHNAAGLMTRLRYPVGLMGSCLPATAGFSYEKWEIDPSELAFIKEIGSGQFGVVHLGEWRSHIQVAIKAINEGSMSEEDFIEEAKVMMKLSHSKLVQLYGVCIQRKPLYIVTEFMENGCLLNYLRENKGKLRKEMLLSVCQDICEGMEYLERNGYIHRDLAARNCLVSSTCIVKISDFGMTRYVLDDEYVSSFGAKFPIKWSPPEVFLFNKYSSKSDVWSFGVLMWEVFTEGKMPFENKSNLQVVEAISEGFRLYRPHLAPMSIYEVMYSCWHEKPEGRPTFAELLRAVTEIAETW
Method: (§2) The inhibitory activities of the compound to Tec, Txk, and ITK of human were performed by Eurofins Pharma Discovery Services UK Limited (UK) of the United Kingdom. In the case of Km ATP, the radioactive protein kinase method was adopted by the test. The kinase was diluted with buffer solution (20 mM MOPS, 1 mM EDTA, 0.01% Brij-35, 5% Glycerol, 0.1% […], 1 mg/mL BSA) before the reaction. The compound was dissolved in 100% DMSO and was of 50-fold final reaction concentration.
TxK reaction solution contained 8 mM MOPS pH 7.0, 0.2 mM EDTA, 250 μM […], 10 mM magnesium acetate, and [γ-^33P]-ATP (about 500 cpm/pmol), 200 μM ATP-Mg was added, after mixing, the reaction was started, the incubation was performed for 40 minutes at room temperature, and 3% phosphoric acid solution was added to terminate the reaction, 10 μl (reaction solution) was placed on P30 filtration membrane, washed with 75 mM phosphoric acid for 5 minutes, and dried with methanol for one time, and then scintillation counting was performed.

[2] = Pharmacokinetic (PK) assay in rats; type: in vivo, rat; conditions: 20 mg/kg oral; for AUC(0-t): read-out: AUC0-24
Method: A male SD rat with 250-300 g of weight was fasted overnight before the assay. The compound to be tested was dissolved in 30% sulfobutyl ether-β-cyclodextrin (SBE-β-CD) and intragastrically administrated to the rat by 20 mg/kg of dosages. Take blood at 15th minute, 30th minute, and 1st, 2nd, 3rd, 4th, 6th, 8th, and 24th hours after the administratation, and about 0.3 mL of blood was taken at each time point. The blood samples were placed into centrifuge tubes containing K2-EDTA (dipotassium ethylene diamine tetraacetate) and plasma was taken via centrifugal treatment (2,000 g, 10 minutes, 4° C.) and stored in a −80° C. of ultra low temperature refrigerator. 50 μL of plasma sample was mixed with 50 μL of internal standard (IS) and extracted with ethyl acetate. After vacuum dried, the residue was re-dissolved in acetonitrile The sample was filtered and injected into LC-MS/MS to be analyzed.

[3] = test system: TMD-8 lymphoma cell strain transplanted tumor; assay: Tumor model pharmacodynamic assay, TMD-8 transplanted tumor; type: in vivo, mice; conditions: for T/C (relative tumor volume increased ratio): 18 days
Method: The dose-effect relationship of inhibition of the compound to tumor growth in a diffuse large B cell lymphoma cell strain TMD-8 transplanted tumor model was studied in the present assay. When volume of TMD-8 tumor reached around 200 mm^3, the animals were divided into four oral administration groups, i.e. vehicle control group and 50 mg/kg, 100 mg/kg, and 200 mg/kg of compound 1 oral administration groups (n=8/
roup). […]
The tumor volume was measured, and the relative tumor volume (RTV) and the relative tumor volume increased ratio were calculated. RTV=Vt/V0, wherein Vt is the average value of the tumor volume at t^th day after the grouping and administrating, and V0 is the average value of the tumor volume at the grouping day. T/C=treatment group RTV/control group RTVx100%.

EGFR T790M/L858R = EGFR T790M/L858R (Homo sapiens, UniProt P00533, L858R/T790M); assay: EGFR activity inhibition assay (Caliper mobility shift); type: biochemical
Sequence of EGFR T790M/L858R (P00533 25-1210 T790M/L858R limits assumed): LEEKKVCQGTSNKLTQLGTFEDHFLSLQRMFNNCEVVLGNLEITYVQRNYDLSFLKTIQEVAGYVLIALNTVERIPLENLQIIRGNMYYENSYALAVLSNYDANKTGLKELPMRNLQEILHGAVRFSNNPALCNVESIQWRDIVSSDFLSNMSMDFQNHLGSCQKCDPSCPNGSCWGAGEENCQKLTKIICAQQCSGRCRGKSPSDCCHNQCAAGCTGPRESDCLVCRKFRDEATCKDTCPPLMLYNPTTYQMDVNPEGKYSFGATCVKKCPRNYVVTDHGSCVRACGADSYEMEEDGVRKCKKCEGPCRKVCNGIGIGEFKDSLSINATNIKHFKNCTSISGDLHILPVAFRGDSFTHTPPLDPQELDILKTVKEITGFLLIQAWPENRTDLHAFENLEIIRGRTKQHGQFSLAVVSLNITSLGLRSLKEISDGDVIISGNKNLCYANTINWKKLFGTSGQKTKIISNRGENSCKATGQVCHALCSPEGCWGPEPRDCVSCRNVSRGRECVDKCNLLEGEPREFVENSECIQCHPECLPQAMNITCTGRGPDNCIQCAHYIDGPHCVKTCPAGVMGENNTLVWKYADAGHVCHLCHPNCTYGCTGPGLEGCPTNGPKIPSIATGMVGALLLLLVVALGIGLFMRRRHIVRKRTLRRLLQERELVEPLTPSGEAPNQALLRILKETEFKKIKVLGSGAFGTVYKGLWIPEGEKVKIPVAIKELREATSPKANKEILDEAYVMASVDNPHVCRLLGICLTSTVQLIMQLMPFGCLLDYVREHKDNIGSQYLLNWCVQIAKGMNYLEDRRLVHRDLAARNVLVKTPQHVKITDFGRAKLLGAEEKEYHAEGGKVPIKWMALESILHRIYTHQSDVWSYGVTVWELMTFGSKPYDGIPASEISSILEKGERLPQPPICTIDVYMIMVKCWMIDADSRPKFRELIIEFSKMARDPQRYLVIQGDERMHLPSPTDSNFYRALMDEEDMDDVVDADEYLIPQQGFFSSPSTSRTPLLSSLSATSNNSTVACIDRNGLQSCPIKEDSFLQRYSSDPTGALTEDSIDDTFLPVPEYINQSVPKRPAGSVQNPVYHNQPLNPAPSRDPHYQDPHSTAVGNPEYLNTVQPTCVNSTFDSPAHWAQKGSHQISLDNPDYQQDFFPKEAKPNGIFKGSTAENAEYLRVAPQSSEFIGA
Text: The conversion ratio data was read on Caliper EZ Reader II (Caliper Life Sciences).

Tec (h) activated = Tec (h) activated (Homo sapiens (Human), UniProt P42680); assay: Tec activity inhibition assay (radioactive protein kinase method, Eurofins); type: biochemical
Sequence of Tec (h) activated (P42680 whole entry): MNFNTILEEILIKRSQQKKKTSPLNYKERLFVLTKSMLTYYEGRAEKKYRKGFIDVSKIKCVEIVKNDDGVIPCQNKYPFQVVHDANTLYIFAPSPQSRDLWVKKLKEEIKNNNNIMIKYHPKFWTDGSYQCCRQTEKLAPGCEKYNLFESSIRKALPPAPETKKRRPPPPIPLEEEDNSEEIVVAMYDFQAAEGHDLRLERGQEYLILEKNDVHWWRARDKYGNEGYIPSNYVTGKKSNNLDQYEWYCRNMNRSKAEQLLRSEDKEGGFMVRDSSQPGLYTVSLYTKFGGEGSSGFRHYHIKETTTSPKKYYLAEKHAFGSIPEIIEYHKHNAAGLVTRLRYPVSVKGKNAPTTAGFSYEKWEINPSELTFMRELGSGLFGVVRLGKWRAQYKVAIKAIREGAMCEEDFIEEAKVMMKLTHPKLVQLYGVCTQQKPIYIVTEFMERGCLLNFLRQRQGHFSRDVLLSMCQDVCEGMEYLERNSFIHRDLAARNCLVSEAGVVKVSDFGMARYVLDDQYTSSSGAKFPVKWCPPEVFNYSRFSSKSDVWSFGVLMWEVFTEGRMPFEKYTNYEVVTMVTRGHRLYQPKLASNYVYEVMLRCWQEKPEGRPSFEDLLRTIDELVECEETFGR
Method: as §2
10 μl (reaction solution) was placed on P30 filtration membrane, washed with 75 mM phosphoric acid for 5 minutes, and dried with methanol for one time, and then scintillation counting was performed.

Itk (h) = Itk (h) (Homo sapiens (Human), UniProt Q08881); assay: ITK activity inhibition assay (radioactive protein kinase method, Eurofins); type: biochemical
Sequence of Itk (h) (Q08881 whole entry): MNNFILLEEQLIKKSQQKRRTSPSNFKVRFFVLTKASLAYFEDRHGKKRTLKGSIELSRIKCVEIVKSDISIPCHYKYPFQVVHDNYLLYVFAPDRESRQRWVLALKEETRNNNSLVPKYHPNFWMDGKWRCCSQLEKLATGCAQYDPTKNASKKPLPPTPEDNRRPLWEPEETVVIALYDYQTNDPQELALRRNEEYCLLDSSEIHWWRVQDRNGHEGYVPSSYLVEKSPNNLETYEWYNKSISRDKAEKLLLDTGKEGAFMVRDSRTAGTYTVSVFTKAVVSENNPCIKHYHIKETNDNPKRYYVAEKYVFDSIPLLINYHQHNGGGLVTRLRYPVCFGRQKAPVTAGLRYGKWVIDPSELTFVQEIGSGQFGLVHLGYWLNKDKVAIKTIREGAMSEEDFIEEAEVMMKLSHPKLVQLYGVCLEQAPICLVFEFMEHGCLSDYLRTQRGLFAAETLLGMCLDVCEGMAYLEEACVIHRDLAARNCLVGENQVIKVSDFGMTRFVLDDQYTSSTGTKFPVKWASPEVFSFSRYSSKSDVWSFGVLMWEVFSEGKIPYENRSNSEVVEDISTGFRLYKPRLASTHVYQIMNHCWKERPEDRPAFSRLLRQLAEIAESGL
Method: as §2
ITK reaction solution included 8 mM MOPS pH 7.0, 0.2 mM EDTA, 0.33 mg/mL myelin basic protein, 10 mM magnesium acetate, and [γ-^33P]-ATP (about 500 cpm/pmol), 200 μM ATP-Mg was added, after mixing, the reaction was started, the incubation was performed for 40 minutes at room temperature, and 3% phosphoric acid solution was added to terminate the reaction. 10 μl (reaction solution) was placed on P30 filtration membrane, washed with 75 mM phosphoric acid for 5 minutes, and dried with methanol for one time, and then scintillation counting was performed.

Structure (SMILES): CC#CC(=O)N1CCC[C@H]1c1nc(-c2ccc(OCc3ccc(C(F)(F)F)cc3)cc2)c2c(N)nccn12 [Compound 2, (S)-1-(2-(8-amino-1-(4-((4-(trifluoromethyl)benzyl)oxy)phenyl)imidazo[1,5-a]pyrazin-3-yl)pyrrolidin-1-yl)but-2-yn-1-one]
IC50 (HCC827 NSCLC cell): 1000 to 10000 nM
IC50 [1]: 100 to 500 nM
IC50 (BTK): > 750 nM

Structure (SMILES): CC#CC(=O)N1CCC[C@H]1c1nc(-c2ccc(C(=O)Nc3ccccn3)cc2)c2c(N)nccn12 [ACP-196, Acalabrutinib, reference compound]
IC50 (Txk (h)): 5000 nM
t1/2 ([2]; male SD rat): 7.9 h
AUC(0-inf) ([2]; plasma, male SD rat): 1400 ng·h/mL
Cmax ([2]; plasma, male SD rat): 668 ng/mL
half-life ([2]; plasma, male SD rat): 7.9 h
AUC(0-t) ([2]; plasma, male SD rat): 1300 ng·h/mL
IC50 (HCC827 NSCLC cell): > 10000 nM
IC50 [1]: ≤ 100 nM

Structure (SMILES): CC#CC(=O)N1CCC[C@H]1c1nc(-c2ccc(OCCc3ccccc3)cc2)c2c(N)nccn12 [Compound 17, (S)-1-(2-(8-amino-1-(4-phenethoxyphenyl)imidazo[1,5-a]pyrazin-3-yl)pyrrolidin-1-yl)but-2-yn-1-one]
IC50 (BTK): 300 to 750 nM

Structure (SMILES): CC#CC(=O)N1CCC[C@H]1c1nc(-c2ccc(OCc3ccccc3)cc2)c2c(N)nccn12 [Compound 1, (S)-1-(2-(8-amino-1-(4-(benzyloxy)phenyl)imidazo[1,5-a]pyrazin-3-yl)pyrrolidin-1-yl)but-2-yn-1-one]
inhibitory activity to Txk (in words) (Txk (h)): very low
IC50 (Txk (h)): 4540 nM
T/C (relative tumor volume increased ratio) ([3]; 50 mg/kg oral once a day): 71%
T/C (relative tumor volume increased ratio) ([3]; 100 mg/kg oral once a day): 7%
T/C (relative tumor volume increased ratio) ([3]; 200 mg/kg oral once a day): −91%
weight of the animal compared to before the administration ([3]; each administration group, 50, 100, 200 mg/kg oral): increased
inhibition of growth of TMD-8 transplanted tumor (in words) ([3]; oral administration, 50-200 mg/kg): inhibit the growth of TMD-8 transplanted tumor dose-dependently; also recorded: dosage-dependently inhibit the growth
t1/2 ([2]; male SD rat): 4.2 h
AUC(0-inf) ([2]; plasma, male SD rat): 3490 ng·h/mL
Cmax ([2]; plasma, male SD rat): 1540 ng/mL
Tmax ([2]; plasma, male SD rat): 0.5 h
half-life ([2]; plasma, male SD rat): 4.2 h
AUC(0-t) ([2]; plasma, male SD rat): 3480 ng·h/mL
AUC relative to ACP-196 ([2]; rat): more than double
Cmax relative to ACP-196 ([2]; rat): more than double
half-life compared to ACP-196 (in words) ([2]; rat): shorter half-life
plasma exposure amount compared to ACP-196 (in words) ([2]; rat): higher plasma exposure amount
inhibitory effect on EGFR (in words) (EGFR T790M/L858R): does not inhibit
IC50 (EGFR T790M/L858R; Km ATP): > 10000 nM
IC50 (HCC827 NSCLC cell): > 10000 nM
IC50 [1]: ≤ 100 nM
inhibitory activity to Tec (in words) (Tec (h) activated): very low
IC50 (Tec (h) activated; Km ATP, radiometric): 218 nM
inhibitory activity to ITK (in words) (Itk (h)): very low
IC50 (Itk (h); Km ATP, radiometric): > 10000 nM
IC50 (BTK): ≤ 100 nM

Structure (SMILES): CC#CC(=O)N1CCC[C@H]1c1nc(-c2ccc(OCc3ccccc3)nc2)c2c(N)nccn12 [Compound 9, (S)-1-(2-(8-amino-1-(6-(benzyloxy)pyridin-3-yl)imidazo[1,5-a]pyrazin-3-yl)pyrrolidin-1-yl)but-2-yn-1-one]
IC50 (BTK): > 750 nM

Structure (SMILES): CC#CC(=O)N1CCC[C@H]1c1nc(-c2ccc(OCc3ccc(F)cc3)cc2)c2c(N)nccn12 [Compound 3, (S)-1-(2-(8-amino-1-(4-((4-fluorobenzyl)oxy)phenyl)imidazo[1,5-a]pyrazin-3-yl)pyrrolidin-1-yl)but-2-yn-1-one]
IC50 (HCC827 NSCLC cell): > 10000 nM
IC50 [1]: 100 to 500 nM
IC50 (BTK): > 750 nM

Structure (SMILES): CC#CC(=O)N1CCC[C@H]1c1nc(-c2ccc(OCc3cc(F)ccn3)cc2)c2c(N)nccn12 [Compound 6, (S)-1-(2-(8-amino-1-(4-((4-fluoropyridin-2-yl)methoxy)phenyl)imidazo[1,5-a]pyrazin-3-yl)pyrrolidin-1-yl)but-2-yn-1-one]
IC50 (HCC827 NSCLC cell): > 10000 nM
IC50 [1]: 100 to 500 nM
IC50 (BTK): > 750 nM

Results, then the compound that gave them:

IC50 (HCC827 NSCLC cell): > 10000 nM
IC50 [1]: ≤ 100 nM
IC50 (BTK): ≤ 100 nM
Structure (SMILES): C=CC(=O)N1CCC[C@H]1c1nc(-c2ccc(OCc3ccccc3)nc2)c2c(N)nccn12 [Compound 25, (S)-1-(2-(8-amino-1-(6-(benzyloxy)pyridin-3-yl)imidazo[1,5-a]pyrazin-3-yl)pyrrolidin-1-yl)prop-2-en-1-one]

IC50 (HCC827 NSCLC cell): > 10000 nM
IC50 [1]: ≤ 100 nM
IC50 (BTK): ≤ 100 nM
Structure (SMILES): C=CC(=O)N1CCC[C@H]1c1nc(-c2ccc(OCc3ccccc3)cc2)c2c(N)nccn12 [Compound 21, (S)-1-(2-(8-amino-1-(4-(benzyloxy)phenyl)imidazo[1,5-a]pyrazin-3-yl)pyrrolidin-1-yl)prop-2-en-1-one]

IC50 (HCC827 NSCLC cell): 1000 to 10000 nM
IC50 [1]: ≤ 100 nM
IC50 (BTK): 100 to 300 nM
Structure (SMILES): C=CC(=O)N1CCC[C@H]1c1nc(-c2ccc(OCc3ccccn3)cc2)c2c(N)nccn12 [Compound 29, (S)-1-(2-(8-amino-1-(4-(pyridin-2-ylmethoxy)phenyl)imidazo[1,5-a]pyrazin-3-yl)pyrrolidin-1-yl)prop-2-en-1-one]

IC50 (BTK): 300 to 750 nM
Structure (SMILES): CC#CC(=O)N1CCC[C@H]1c1nc(-c2ccc(OCc3ccccn3)cc2)c2c(N)nccn12 [Compound 5, (S)-1-(2-(8-amino-1-(4-(pyridin-2-ylmethoxy)phenyl)imidazo[1,5-a]pyrazin-3-yl)pyrrolidin-1-yl)but-2-yn-1-one]
